Assay results: ChEMBL document CHEMBL4402560, “Sarco/Endoplasmic Reticulum Calcium ATPase Inhibitors: Beyond Anticancer Perspective” (J Med Chem, 2020)

Experiments:
[1] = Inhibition of porcine cardiac microsomes SERCA2a by enzyme-coupled method; set-up: species or system Sus scrofa domesticus, Heart
[2] = Inhibition of porcine cerebellar microsomes SERCA2b by enzyme-coupled method; set-up: species or system Sus scrofa domesticus, Cerebellum
[3] = target: T1, Sarcoplasmic/endoplasmic reticulum calcium ATPase 1 (Oryctolagus cuniculus, UniProt P04191); experiment: Inhibition of rabbit skeletal muscle microsomes SERCA1a by enzyme-coupled method
T1 sequence (P04191 whole entry): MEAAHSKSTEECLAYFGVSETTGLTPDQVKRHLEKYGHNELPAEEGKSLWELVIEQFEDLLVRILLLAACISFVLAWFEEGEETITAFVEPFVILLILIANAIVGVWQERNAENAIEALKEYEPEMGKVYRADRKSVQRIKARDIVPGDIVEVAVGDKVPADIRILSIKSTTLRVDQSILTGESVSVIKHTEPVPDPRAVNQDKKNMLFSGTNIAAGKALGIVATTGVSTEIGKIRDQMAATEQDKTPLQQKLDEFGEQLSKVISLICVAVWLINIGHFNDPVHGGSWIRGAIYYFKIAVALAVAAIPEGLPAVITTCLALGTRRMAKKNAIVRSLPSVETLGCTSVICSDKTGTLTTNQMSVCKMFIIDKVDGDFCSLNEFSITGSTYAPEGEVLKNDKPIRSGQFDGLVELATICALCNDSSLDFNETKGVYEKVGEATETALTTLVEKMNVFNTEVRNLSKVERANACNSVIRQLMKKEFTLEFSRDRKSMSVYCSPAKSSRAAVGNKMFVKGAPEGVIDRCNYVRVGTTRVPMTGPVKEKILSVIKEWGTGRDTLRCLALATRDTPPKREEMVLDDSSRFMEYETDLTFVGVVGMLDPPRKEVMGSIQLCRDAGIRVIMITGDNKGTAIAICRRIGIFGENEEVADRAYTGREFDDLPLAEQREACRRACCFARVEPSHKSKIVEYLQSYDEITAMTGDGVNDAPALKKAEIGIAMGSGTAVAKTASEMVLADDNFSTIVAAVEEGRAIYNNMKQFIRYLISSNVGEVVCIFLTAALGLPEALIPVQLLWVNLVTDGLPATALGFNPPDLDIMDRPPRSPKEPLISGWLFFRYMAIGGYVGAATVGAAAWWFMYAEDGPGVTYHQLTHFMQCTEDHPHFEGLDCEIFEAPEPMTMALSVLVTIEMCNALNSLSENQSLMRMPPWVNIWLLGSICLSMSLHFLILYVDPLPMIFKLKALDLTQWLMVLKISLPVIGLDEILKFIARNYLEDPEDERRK

[4] = target: T2, Sarcoplasmic/endoplasmic reticulum calcium ATPase 2 (Homo sapiens, UniProt P16615); experiment: Inhibition of human SERCA2b expressed in COS7 cells microsomal membranes preincubated for 10 mins followed by addition of ATP and measured after 40 mins by ELISA method; format: cell-based
T2 sequence (P16615 whole entry): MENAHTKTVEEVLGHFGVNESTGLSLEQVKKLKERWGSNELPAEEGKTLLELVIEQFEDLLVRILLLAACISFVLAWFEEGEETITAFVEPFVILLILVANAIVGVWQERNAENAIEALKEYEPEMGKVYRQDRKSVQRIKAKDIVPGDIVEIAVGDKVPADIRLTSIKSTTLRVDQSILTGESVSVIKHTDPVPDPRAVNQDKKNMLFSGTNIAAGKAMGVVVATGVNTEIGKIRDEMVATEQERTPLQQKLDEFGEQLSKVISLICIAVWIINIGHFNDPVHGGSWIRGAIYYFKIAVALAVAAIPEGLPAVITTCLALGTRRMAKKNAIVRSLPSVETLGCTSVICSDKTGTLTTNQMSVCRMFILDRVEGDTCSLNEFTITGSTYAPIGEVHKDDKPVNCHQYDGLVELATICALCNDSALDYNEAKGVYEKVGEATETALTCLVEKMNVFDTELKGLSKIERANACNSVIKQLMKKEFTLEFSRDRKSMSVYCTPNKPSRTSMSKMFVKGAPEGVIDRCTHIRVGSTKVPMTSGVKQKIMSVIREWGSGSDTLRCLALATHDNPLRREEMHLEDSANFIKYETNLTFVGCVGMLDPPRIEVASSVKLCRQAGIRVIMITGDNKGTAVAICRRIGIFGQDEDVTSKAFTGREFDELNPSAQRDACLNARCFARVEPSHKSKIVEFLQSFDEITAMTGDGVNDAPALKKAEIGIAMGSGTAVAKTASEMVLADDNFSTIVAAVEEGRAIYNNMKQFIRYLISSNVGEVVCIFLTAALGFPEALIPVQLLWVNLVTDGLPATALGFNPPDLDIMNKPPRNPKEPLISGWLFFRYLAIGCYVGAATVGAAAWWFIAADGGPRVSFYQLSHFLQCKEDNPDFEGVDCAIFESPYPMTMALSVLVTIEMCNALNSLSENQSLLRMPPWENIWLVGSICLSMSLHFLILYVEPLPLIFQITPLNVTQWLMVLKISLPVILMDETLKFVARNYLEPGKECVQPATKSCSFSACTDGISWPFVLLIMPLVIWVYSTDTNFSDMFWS

[5] = target: T3, Sarcoplasmic/endoplasmic reticulum calcium ATPase 3 (Homo sapiens, UniProt Q93084); experiment: Inhibition of human SERCA3a expressed in COS7 cells microsomal membranes preincubated for 10 mins followed by addition of ATP and measured after 40 mins by ELISA method; format: cell-based
T3 sequence (Q93084 whole entry): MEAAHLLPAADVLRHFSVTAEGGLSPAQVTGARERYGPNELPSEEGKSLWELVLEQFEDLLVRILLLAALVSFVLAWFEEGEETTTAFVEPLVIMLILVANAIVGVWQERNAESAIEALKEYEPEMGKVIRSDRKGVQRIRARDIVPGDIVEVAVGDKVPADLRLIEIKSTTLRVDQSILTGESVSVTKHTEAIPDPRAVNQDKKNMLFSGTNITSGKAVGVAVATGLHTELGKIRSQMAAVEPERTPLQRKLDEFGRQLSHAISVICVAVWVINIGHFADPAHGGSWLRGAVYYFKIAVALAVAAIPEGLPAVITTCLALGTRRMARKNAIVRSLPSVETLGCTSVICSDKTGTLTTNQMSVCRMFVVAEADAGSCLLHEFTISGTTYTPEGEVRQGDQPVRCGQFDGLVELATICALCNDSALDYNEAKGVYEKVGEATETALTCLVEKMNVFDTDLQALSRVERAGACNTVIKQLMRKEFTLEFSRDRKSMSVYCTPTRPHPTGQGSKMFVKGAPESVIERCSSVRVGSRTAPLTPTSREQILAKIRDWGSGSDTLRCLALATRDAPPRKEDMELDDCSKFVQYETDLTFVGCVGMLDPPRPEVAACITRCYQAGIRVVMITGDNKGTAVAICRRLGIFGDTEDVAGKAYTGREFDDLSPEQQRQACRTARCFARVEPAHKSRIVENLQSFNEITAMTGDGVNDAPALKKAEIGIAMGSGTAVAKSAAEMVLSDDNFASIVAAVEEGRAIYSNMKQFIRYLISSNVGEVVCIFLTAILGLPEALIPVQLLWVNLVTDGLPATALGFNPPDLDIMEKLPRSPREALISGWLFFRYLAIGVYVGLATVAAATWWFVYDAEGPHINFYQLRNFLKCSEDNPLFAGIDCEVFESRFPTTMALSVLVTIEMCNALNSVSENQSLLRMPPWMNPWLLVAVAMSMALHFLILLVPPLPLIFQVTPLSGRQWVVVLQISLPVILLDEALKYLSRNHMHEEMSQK

[6] = target: T1, Sarcoplasmic/endoplasmic reticulum calcium ATPase 1; experiment: Inhibition of rabbit SERCA1b expressed in COS7 cells microsomal membranes preincubated for 10 mins followed by addition of ATP and measured after 40 mins by ELISA method; format: cell-based
[7] = target: T2, Sarcoplasmic/endoplasmic reticulum calcium ATPase 2; experiment: Inhibition of SERCA2b in human platelet microsomes by enzyme-coupled method
[8] = target: T3, Sarcoplasmic/endoplasmic reticulum calcium ATPase 3; experiment: Inhibition of SERCA3 in human platelet microsomes by enzyme-coupled method
MRC5 = experiment: Antiproliferative activity against human MRC5 cells; format: functional, cell-based
BJ = experiment: Antiproliferative activity against human BJ cells; format: functional, cell-based
MIA PaCa-2 = experiment: Antiproliferative activity against human MIAPaCa2 cells; format: functional, cell-based
[9] = Inhibition of fish liver microsomes SERCA by enzyme-coupled method; set-up: species or system Squalius cephalus
[10] = Inhibition of SERCA (unknown origin); set-up: species or system Homo sapiens
[11] = target: T1, Sarcoplasmic/endoplasmic reticulum calcium ATPase 1; experiment: Inhibition of rabbit microsomes SERCA1a by enzyme-coupled method
[12] = target: T1, Sarcoplasmic/endoplasmic reticulum calcium ATPase 1; experiment: Inhibition of rabbit skeletal muscle microsomes SERCA1a
[13] = target: T1, Sarcoplasmic/endoplasmic reticulum calcium ATPase 1; experiment: Inhibition of SERCA1 in rabbit skeletal muscle microsomes assessed as decrease in NADH absorbance by NADH-coupled enzyme assay; set-up: species or system Muscle tissue
[14] = target: T1, Sarcoplasmic/endoplasmic reticulum calcium ATPase 1; experiment: Inhibition of rabbit skeletal muscle microsomes SERCA1a preincubated for 10 mins followed by addition of ATP and measured after 30 mins
[15] = target: T1, Sarcoplasmic/endoplasmic reticulum calcium ATPase 1; experiment: Inhibition of rabbit skeletal muscle microsomes FITC-labelled SERCA1a incubated for 1 hr by fluorescence spectrophotometric method
[16] = Inhibition of porcine cerebellar microsomes FITC-labelled SERCA2b incubated for 1 hr by fluorescence spectrophotometric method
[17] = target: T1, Sarcoplasmic/endoplasmic reticulum calcium ATPase 1; experiment: Inhibition of rabbit skeletal muscle microsomes SERCA1a incubated for 10 mins by enzyme-coupled method
[18] = target: T2, Sarcoplasmic/endoplasmic reticulum calcium ATPase 2; experiment: Inhibition of SERCA2a (unknown origin)
[19] = target: T1, Sarcoplasmic/endoplasmic reticulum calcium ATPase 1; experiment: Inhibition of rabbit skeletal muscle microsomes SERCA1a preincubated for 10 mins followed by addition of ATP and measured after 40 mins
[20] = target: T1, Sarcoplasmic/endoplasmic reticulum calcium ATPase 1; experiment: Inhibition of rabbit skeletal muscle microsomes SERCA1a by malachite green based colorimetric method

Q: What does the source list for COc1cc(/C=C/C(=O)CC(=O)/C=C/c2ccc(O)c(OC)c2)ccc1O [CURCUMIN]?
A: IC50 [1]: 7 to 15 µM; IC50 [2]: 7 to 15 µM; IC50 [3]: 3 to 15 µM; Ki [4]: 53 µM; Ki [5]: 8.6 µM; Ki [6]: 5.8 µM; IC50 [7]: 7 to 15 µM; IC50 [8]: 7 to 15 µM

Q: Which IC50 [2] does the source give for CC(C)(c1cc(Br)c(O)c(Br)c1)c1cc(Br)c(O)c(Br)c1 here?
A: Its IC50 is 0.5 to 2.3 µM.

Q: And the IC50 [3]?
A: Its IC50 is 0.5 to 2.3 µM.

Q: Which results are given for C/C=C(/C)C(=O)O[C@@H]1C[C@H]2C(=C1C)[C@@H]1OC(=O)[C@@](C)(O)[C@@]1(O)[C@@H](OC(=O)CCCCn1cc([C@]3(O)CC[C@H]4[C@@H]5CCC6=CC(O)CC[C@]6(C)[C@H]5CC[C@@]43C)nn1)C[C@]2(C)OC(C)=O (stereo partly specified)?
A: IC50 (MRC5): > 50 µM; IC50 (BJ): 13.7 to 50 µM; IC50 (MIA PaCa-2): 13.7 to 50 µM

Q: Which IC50 [9] does the source give for CC/C(=C(/CC)c1ccc(O)cc1)c1ccc(O)cc1 [DIETHYLSTILBESTROL] here?
A: The IC50 was 7 to 20 µM.

Q: What about the IC50 [10] of the same compound?
A: The IC50 was 15 µM.

Q: What about the IC50 [11] of the same compound?
A: Its IC50 is 14 to 20 µM.

Q: For C/C=C(/C)C(=O)O[C@H]1C(C)=C2[C@H]([C@@H]1OC(=O)CCCCCCC)[C@](C)(OC(C)=O)C[C@H](OC(=O)CCC)[C@@]1(O)[C@H]2OC(=O)[C@@]1(C)O, which IC50 [4] is on record?
A: The IC50 was 0.21 to 12 µM.

Q: And the IC50 [5]?
A: Its IC50 is 0.21 to 12 µM.

Q: And the IC50 [6]?
A: The IC50 was 0.21 to 12 µM.

Q: What about the Ki [12] of the same compound?
A: The Ki was 0.011 µM.

Q: Which IC50 [13] does the source give for CCCCCCCCCCCCCCCCCC(=O)O[C@@H]1[C@@H](O)[C@@H](O)[C@H](OC[C@H]2O[C@@H](Oc3c(-c4ccc(O)c(O)c4)oc4cc(O)cc(O)c4c3=O)[C@H](O)[C@@H](O)[C@@H]2O)O[C@H]1C here?
A: The IC50 was 35 µM.

Q: For Cc1cc(O)ccc1Cl [CHLOROCRESOL], which IC50 [14] is on record?
A: Its IC50 is 2800 µM.

Q: Which IC50 [15] does the source give for NCCOB(c1ccccc1)c1ccccc1 here?
A: Its IC50 is 70 to 700 µM.

Q: What about the IC50 [16] of the same compound?
A: Its IC50 is 70 to 700 µM.

Q: For C/C=C(/C)C(=O)O[C@@H]1C[C@H]2C(=C1C)[C@@H]1OC(=O)[C@@](C)(O)[C@@]1(O)[C@@H](OC(=O)CCCCn1cc([C@]3(O)CC[C@H]4[C@@H]5CCc6cc(OC)ccc6[C@H]5CC[C@@]43C)nn1)C[C@]2(C)OC(C)=O, which IC50 (MRC5) is on record?
A: Its IC50 is 10.1 µM.

Q: And the IC50 (BJ)?
A: The IC50 was 17 µM.

Q: And the IC50 (MIA PaCa-2)?
A: The IC50 was over 50 µM.

Q: With CCCCC/C=C\C/C=C\CCCCCCCC(=O)O[C@@H]1[C@@H](O)[C@@H](O)[C@H](OC[C@H]2O[C@@H](Oc3c(-c4ccc(O)c(O)c4)oc4cc(O)cc(O)c4c3=O)[C@H](O)[C@@H](O)[C@@H]2O)O[C@H]1C as the compound, how does the IC50 [13] read?
A: The IC50 was 28 µM.

Q: For C[C@H](C[C@H](O)[C@H]1OC1(C)C)C1=C2C[C@H](O)[C@H]3[C@@]4(C)CCC(=O)C(C)(C)[C@@H]4CC[C@]3(C)[C@@]2(C)CC1 [ALISOL B], which IC50 [2] is on record?
A: The IC50 was 27 µM.

Q: And the IC50 [3]?
A: Its IC50 is 27 to 53 µM.

Q: Which IC50 [17] does the source give for OCCN1CCN(CCCN2c3ccccc3Sc3ccc(C(F)(F)F)cc32)CC1 [FLUPHENAZINE] here?
A: The IC50 was 15 µM.

Q: For C/C=C/C/C(C)=C\[C@H]1C/C=C/C=C/C[C@H](C)/C=C(\C)[C@@H](OC)C/C=C/[C@@H](O)CC(=O)O1, which Ki [18] is on record?
A: Its Ki is 0.027 µM.

Q: And the Ki [12]?
A: The Ki was 0.017 µM.

Q: With O=c1c(O)c(-c2ccc(O)c(O)c2)oc2cc(O)cc(O)c12 [QUERCETIN] as the compound, how does the IC50 [19] read?
A: Its IC50 is 9 µM.

Q: For C/C(O)=C1\C(=O)[C@@H]2[C@H]3c4c[nH]c5cccc(c45)C[C@H]3C(C)(C)N2C1=O, which IC50 [4] is on record?
A: The IC50 was 0.09 to 2.5 µM.

Q: What about the IC50 [5] of the same compound?
A: Its IC50 is 0.09 to 2.5 µM.

Q: And the IC50 [6]?
A: Its IC50 is 0.09 to 2.5 µM.

Q: With Clc1cccc(C(Nc2ccnc3cc(Cl)ccc23)c2ccc(CN3CCN(c4ccnc5cc(Cl)ccc45)CC3)cc2)c1 (stereo unspecified) as the compound, how does the IC50 [20] read?
A: The IC50 was 1.3 µM.

Q: For CCOC(=O)CC1C(C(=O)OCC)=C(N)Oc2ccc(-c3cc(OC)cc(OC)c3)cc21 (stereo unspecified), which IC50 [12] is on record?
A: Its IC50 is 13.5 µM.

Q: What does the source list for CCOC(=O)CC1C(C(=O)OCC)=C(N)Oc2ccc(-c3ccccc3)cc21 (stereo unspecified)?
A: IC50 [2]: 23 µM; IC50 [3]: 23 µM

Q: Which IC50 [1] does the source give for CC(C)(O)[C@H]1O[C@H]2CC[C@@]3(C)[C@@](O)(CC[C@H]4Cc5c([nH]c6ccccc56)[C@@]43C)C2=CC1=O [PAXILLINE] here?
A: Its IC50 is 5 µM.

Q: What about the IC50 [2] of the same compound?
A: Its IC50 is 5 µM.

Q: What about the IC50 [3] of the same compound?
A: The IC50 was 5 µM.

Q: What about the IC50 [7] of the same compound?
A: The IC50 was 5 µM.

Q: What about the IC50 [8] of the same compound?
A: The IC50 was 5 µM.
